Measurements: patent US9868775B2, “Sfrp5-derived peptide fragment and cosmetic composition for skin whitening containing same” (KNU-INDUSTRY COOPERATION FOUNDATION, priority 2014, dated 2018)

What was measured:
β-catenin = assay: Western blotting, β-catenin expression in human epidermal melanocytes; type: cell-based; settings: α-MSH, predetermined concentrations, 48 hours (FIG. 2)
Method: (§1) The effects of the peptide fragment of the present invention on the β-catenin expression and the GSK-3 phosphorylation, which plays a critical role in the activation of Wnt signaling pathways, were evaluated using a Western blotting assay. Human epidermal melanocytes (Cascade Biologics, #C-0245C; Portland, Oreg., USA) were added to 2 ml of DMEM in each well of a 6-well microplate (1.5×10^5 cells per well). The cells were then stabilized through incubating in a 5% CO2 incubator at 37° C. for 24 hours. α-MSH (Sigma Co, MO, USA), a melanocyte-stimulating hormone, was treated to each well, along with the peptide fragment of the present invention (the peptide of SEQ ID NO: 8) in predetermined concentrations. After the cells were cultured for 48 hours, the proteins were extracted therefrom. The obtained extracts were subject to the Western blotting assay using an anti-β-catenin antibody (Santa Cruz Co., CA, USA) and an anti-pGSK-3 antibody (Cell SignalingTechnology, MA, USA), so as to measure the levels of β-catenin expression and GSK-3 phosphorylation changes. […] Therefore, it can be seen that the peptide fragments of the present invention can inhibit the Wnt signaling pathways in melanocytes.

tyrosinase [1] = assay: inhibitory activity against tyrosinase activity in B16F10 (L-DOPA, 490 nm); type: cell-based, mouse; settings: B16F10, α-MSH, predetermined concentrations, 72 hours, 490 nm (FIG. 4)
Method: B16F10 cells (Korean Cell Line Bank, Seoul) were added to each well of a 24-well plate (5×10^4 cells per well), along with 1 ml of DMEM, and then stabilized through incubating in a 5% CO2 incubator at 37° C. for 24 hours. α-MSH (Sigma Co, MO, USA), a melanocyte-stimulating hormone, was treated to each well, along with the peptide of SEQ ID NO: 8 in predetermined concentrations. After incubating the cells for 72 hours, the proteins were extracted therefrom. The obtained extracts were added to each well of a 96-well plate ([…] per each well) and then treated with a L-dihydroxyphenylalanine (L-DOPA) solution (100 μL) at 37° C. for 2 hours. The groups in which α-MSH (100 nM) and arbutin (0.01%) were respectively treated were used as positive controls. After 2 hours, the pictures thereof were taken and the tyrosinase activities thereof were measured at 490 nm with a microreader.

MITF [2] = assay: Western blotting, MITF protein expression in human epidermal melanocytes; type: cell-based; settings: α-MSH, predetermined concentrations, 24 hours (FIG. 5)
Method: (§2) We evaluated the effects of the peptide fragment of the present invention on the protein expressions of the melanin-producing enzymes in human epidermal melanocytes, using a Western blotting assay. Human epidermal melanocytes (Cascade Biologics, #C-0245C; Portland, Oreg., USA) were added to each well of a 6-well microplate (1.5×10^5 cells per well), along with 2 ml of DMEM, and then stabilized through incubating in a 5% CO2 incubator at 37° C. for 24 hours. α-MSH (Sigma Co, MO, USA), a melanocyte-stimulating hormone, was treated to each well, along with the peptide fragment of the present invention (the peptide of SEQ ID NO: 8) in predetermined concentrations. After incubating the cells for 24 hours, the proteins were extracted therefrom. The obtained extracts were subject to the Western blotting assay using an anti-MITF antibody (ABcam, Ma, USA), an anti-tyrosinase antibody (Santa Cruz Co., CA, USA), an anti-TRP-1 antibody (Santa Cruz Co., CA, USA), and an anti-TRP-2 antibody (Santa Cruz Co., CA, USA), so as to measure the expression levels of MITF, tyrosinase, TRP-1, and TRP-2.

TRP-1 [3] = assay: RT-PCR, TRP-1 gene expression in human epidermal melanocytes; type: cell-based; settings: α-MSH, predetermined concentrations, 72 hours, RT-PCR (FIG. 6)
Method: (§3) Human epidermal melanocytes were added to each well of a 6-well plate (1.5×10^5 cells per well), along with 2 ml of DMEM, and then stabilized through incubating in a 5% CO2 incubator at 37° C. for 24 hours. α-MSH (Sigma Co, MO, USA), a melanocyte-stimulating hormone, was treated to each well, along with the peptide of SEQ ID NO: 8 in predetermined concentrations. After incubating the cells for 72 hours, the total RNAs were extracted therefrom and then cDNAs were synthesized. The cDNA syntheses were carried out with a Reverse Transcription Master premix (Elpisbiotech, Daejeon, Korea). Using each synthesized cDNA as a template, reverse transcription polymerase chain reactions (RT-PCR) were carried out with a ROTOR Q GENE apparatus. Each RT-PCR solution was prepared by mixing 1 μl of cDNA, 10 μl of TOPreal qRT-PCR2X premix (Enzynomics, Daejeon, Korea), 2 μl of primer set (10 pmol) and 7 μl of D.W. The RT-PCR was carried out as follows: initially at 94° C. for 10 minutes; and then at 94° C. for 10 seconds, at 58° C. for 30 seconds, and at 72° C. for 1 minute; 40 cycles.

MITF and β-catenin = assay: in situ proximity ligation assay, binding between MITF and β-catenin; type: cell-based, mouse; settings: B16F1 cells, similar methods to CREB test (FIG. 1c)
Method: The effects of the peptide fragments of the present invention on the β-catenin activation, which plays a critical role in Wnt signaling pathways, were evaluated using an in situ proximity ligation assay. The evaluation was performed with a commercially available kit, i.e., DUOLINK II in situ kit from Olink Bioscience, Sweden.
The mouse melanoma cell line B16F1 cells (Korean Cell Line Bank, Seoul) were added to 1 ml of DMEM in each well of a 24-well plate (5×10^4 cells per well), each well having a 12 mm glass in the bottom thereof. The cells were then stabilized through incubating in a 5% CO2 incubator at 37° C. for 24 hours. α-MSH (Sigma Co, MO, USA), a melanocyte-stimulating hormone (0.1 μM), and the peptide fragments of the present invention (1 μM) were treated to each well. The cells were cultured in a 5% CO2 incubator at 37° C. for 24 hours and then fixed with 4% paraformaldehyde. After a drop of the blocking solution was added to the cells on the 12 mm glass, the cells were then incubated at 37° C. for 30 minutes. Activation of the Wnt receptor increases the interaction between CREB (cyclic AMP response element-binding) and β-catenin. For determining the interaction levels thereof, the cells were treated with an anti-CREB polyclonal antibody (Santa Cruz Co., CA, USA) and an anti-β-catenin mouse monoclonal antibody (Santa Cruz Co., CA, USA) at 37° C. After incubating 30 minutes therefrom, the cells were treated with the PLA probe solution at 37° C. for 1 hour, with the ligation solution for 30 minutes, and then with the amplification solution for 100 minutes. After washing the cells with the washing buffer, the number of the red spots was measured with a confocal microscopy. In FIGS. 1a and 1b, the control means the group of no treatment and the α-MSH means the group treated with only α-MSH (i.e., without peptide treatment).
And also, according to similar methods in the above, we investigated the inhibitory effects of the peptides of SEQ ID NOs: 5, 8, and 9 on the binding between MITF and β-catenin.

TRP-2 [4] = assay: RT-PCR, TRP-2 gene expression in human epidermal melanocytes; type: cell-based; settings: α-MSH, predetermined concentrations, 72 hours, RT-PCR (FIG. 6)
Method: as §3

MITF [5] = assay: RT-PCR, MITF gene expression in human epidermal melanocytes; type: cell-based; settings: α-MSH, predetermined concentrations, 72 hours, RT-PCR (FIG. 6)
Method: as §3

[6] = system: mouse melanoma cell line B16F10; assay: inhibitory activity against melanin formation in B16F10; type: cell-based; settings: B16F10, α-MSH 100 nM, peptide 0.1, 1, and 10 μM, 24 hours (FIG. 3)
Method: B16F10 cells (Korean Cell Line Bank, Seoul) were added to each well of a 6-well microplate (1.5×10^5 cells per well), along with 2 ml of DMEM, and then incubated in a 5% CO2 incubator at 37° C. for 24 hours. α-MSH (Sigma Co, MO, USA) (100 nM) was treated to each well, along with the peptide of SEQ ID NO: 8 in the final concentrations of 0.1, 1, and 10 μM. The groups in which α-MSH (100 nM) and arbutin (0.01%) were respectively treated were used as positive controls. After additionally incubating the cells for 24 hours, the pictures of each culture ware taken so as to compare the respective levels of melanin formation.

TRP-2 [7] = assay: Western blotting, TRP-2 protein expression in human epidermal melanocytes; type: cell-based; settings: α-MSH, predetermined concentrations, 24 hours (FIG. 5)
Method: as §2

tyrosinase [8] = assay: Western blotting, tyrosinase protein expression in human epidermal melanocytes; type: cell-based; settings: α-MSH, predetermined concentrations, 24 hours (FIG. 5)
Method: as §2

GSK-3 = assay: Western blotting, GSK-3 phosphorylation in human epidermal melanocytes; type: cell-based; settings: α-MSH, predetermined concentrations, 48 hours (FIG. 2)
Method: as §1

TRP-1 [9] = assay: Western blotting, TRP-1 protein expression in human epidermal melanocytes; type: cell-based; settings: α-MSH, predetermined concentrations, 24 hours (FIG. 5)
Method: as §2

tyrosinase (TYR) = assay: RT-PCR, tyrosinase gene expression in human epidermal melanocytes; type: cell-based; settings: α-MSH, predetermined concentrations, 72 hours, RT-PCR (FIG. 6)
Method: as §3

Row | bindings between MITF and β-catenin (MITF and β-catenin) | Substance | level of β-catenin expression (β-catenin) | tyrosinase activity (tyrosinase [1]) | expression level of MITF (protein) (MITF [2]) | gene expression of TRP-1 (TRP-1 [3]) | gene expression of TRP-2 (TRP-2 [4]) | gene expression of MITF (MITF [5]) | melanin formation (brown colors of cell culture) [6] | expression level of TRP-2 (protein) (TRP-2 [7]) | expression level of tyrosinase (protein) (tyrosinase [8]) | level of GSK-3 phosphorylation (GSK-3) | expression level of TRP-1 (protein) (TRP-1 [9]) | gene expression of tyrosinase (TYR) (tyrosinase (TYR))
1 | significantly decreased | Cys-Glu-Ala-Val (CEAV; Peptide fragment) [SEQ ID NO: 9, Sfrp5-derived peptide fragment] |  |  |  |  |  |  |  |  |  |  |  | 
2 | significantly decreased | Lys-Ile-Gly (KIG; Petide fragment) [SEQ ID NO: 5, Sfrp5-derived peptide fragment] |  |  |  |  |  |  |  |  |  |  |  | 
3 |  | α-MSH: a melanocyte-stimulating hormone (Sigma Co, MO, USA), used as stimulant [reference compound] |  | increased |  | increased | increased | increased |  |  |  |  |  | increased

Row | Substance | bindings between MITF and β-catenin (MITF and β-catenin) | level of β-catenin expression (β-catenin) | tyrosinase activity (tyrosinase [1]) | expression level of MITF (protein) (MITF [2]) | gene expression of TRP-1 (TRP-1 [3]) | gene expression of TRP-2 (TRP-2 [4]) | gene expression of MITF (MITF [5]) | melanin formation (brown colors of cell culture) [6] | expression level of TRP-2 (protein) (TRP-2 [7]) | expression level of tyrosinase (protein) (tyrosinase [8]) | level of GSK-3 phosphorylation (GSK-3) | expression level of TRP-1 (protein) (TRP-1 [9]) | gene expression of tyrosinase (TYR) (tyrosinase (TYR))
4 | Ala-Gln-Lys (AQK; Petide fragment) [SEQ ID NO: 8, Sfrp5-derived peptide fragment] | significantly decreased | decreased | decreased in concentration-dependent manner | decreased | decreased in concentration-dependent manner | decreased in concentration-dependent manner | decreased in concentration-dependent manner | decreased according to the concentrations of the peptide | decreased | decreased | decreased | decreased | decreased in concentration-dependent manner
